Values after ≈ are worked out from the molar mass of the structure shown. Active and inactive are the calls of the source. The calls are words filed in the database; no cut-off is given here.
Key:
[1] = Thermodynamic solubility in sodium phosphate buffer of pH 7.4 by UV-reverse phase HPLC analysis; type: physicochemical
[2] = Metabolic stability in rat liver microsomes assessed as compound remaining after 30 mins by HPLC/MS analysis; type: ADME, Microsome; settings: read-out: Stability
[3] = Inhibition of human platelet cPLA2alpha assessed as inhibition of arachidonic acid production after 60 mins by UV-reverse phase HPLC analysis; settings: 1 h
[4] = Partition coefficient, log P at 5 mM by reverse phase HPLC analysis; type: physicochemical; settings: octanol/water
Homo sapiens = species: Homo sapiens; assay: Inhibition of human platelet cPLA2alpha assessed as inhibition of arachidonic acid production at 1 uM after 60 mins by UV-reverse phase HPLC analysis

SMILES | solubility thermodynamic [1] | remaining at 0.5 h [2] | IC50 [3] | logP at 5000 µM [4] | inhibition (Homo sapiens)
CCCCCCOc1ccc(OCC(=O)Cn2ccc3cc(C(=O)O)ccc32)cc1 | 7 µg/mL (≈ 17.1 µM) | 38% | 34 nM | 4.6 | –
CCCCCCCOc1ccc(OCC(=O)Cn2ccc3cc(C(=O)O)ccc32)cc1 | < 3 µg/mL | 57% | 32 nM | 5.2 | –
CCCCCCCCCCOc1ccc(OCC(=O)Cn2ccc3cc(C(=O)O)ccc32)cc1 | < 3 µg/mL | 67% | 20 nM | 7.1 | –
COc1ccc2c(c1)c(CC(=O)O)c(C)n2C(=O)c1ccc(Cl)cc1 [INDOMETHACIN] | 246 µg/mL (≈ 688 µM) | – | – | 2.9 | –
NC(=O)c1ccc2c(ccn2CC(=O)COc2ccc(-c3ccccc3)cc2)c1 | < 3 µg/mL | 33% | 150 nM | 2.4 | –
NC(=O)c1ccc2c(ccn2CC(=O)COc2cccc(-c3ccccc3)c2)c1 | < 3 µg/mL | 15% | 250 nM | 2.3 | –
O=C(COc1ccc(-c2cccc(F)c2)cc1)Cn1ccc2cc(C(=O)O)ccc21 | < 3 µg/mL | 22% | 41 nM | 3.2 | –
COc1cc(-c2ccccc2)ccc1OCC(=O)Cn1ccc2cc(C(=O)O)ccc21 | 6 µg/mL (≈ 14.4 µM) | 72% | – | 2.9 | inactive
CC(C)c1ccc(-c2ccc(OCC(=O)Cn3ccc4cc(C(=O)O)ccc43)cc2)cc1 | < 3 µg/mL | 40% | 35 nM | 4.7 | –
O=C(COc1ccccc1-c1ccccc1)Cn1ccc2cc(C(=O)O)ccc21 | 21 µg/mL (≈ 54.5 µM) | 81% | – | 3.1 | inactive
O=C(COc1ccc(Oc2ccc(C(F)(F)F)cc2)cc1)Cn1ccc2cc(C(=O)O)ccc21 | < 3 µg/mL | 57% | 19 nM | 4 | –
CC(=O)c1cn(CC(=O)COc2ccc(Oc3ccc(C(F)(F)F)cc3)cc2)c2ccc(C(=O)O)cc12 | < 3 µg/mL | 73% | 10 nM | 3.5 | –
CCCCCCCCOc1ccc(OCC(=O)Cn2ccc3cc(C(=O)O)ccc32)cc1 | < 3 µg/mL | 79% | 26 nM | 5.9 | –
O=C(COc1ccc(Oc2ccccc2)cc1)Cn1ccc2cc(C(=O)O)ccc21 | 43 µg/mL (≈ 107 µM) | 3% | 36 nM | 3.1 | –
O=C(COc1ccc(-c2ccc(F)cc2)cc1)Cn1ccc2cc(C(=O)O)ccc21 | < 3 µg/mL | 14% | 37 nM | 3.2 | –
O=C(COc1ccc(-c2ccc(Cl)cc2)cc1)Cn1ccc2cc(C(=O)O)ccc21 | < 3 µg/mL | 46% | 27 nM | 3.9 | –
CCCCCCCCCOc1ccc(OCC(=O)Cn2ccc3cc(C(=O)O)ccc32)cc1 | < 3 µg/mL | 74% | 23 nM | 6.5 | –
O=C(COc1ccc(-c2ccccc2)cc1F)Cn1ccc2cc(C(=O)O)ccc21 | 5 µg/mL (≈ 12.4 µM) | 16% | 230 nM | 3.3 | –
NC(=O)c1ccc2c(ccn2CC(=O)COc2ccccc2-c2ccccc2)c1 | < 3 µg/mL | 20% | – | 2.3 | inactive

Second part, the compound after the results:

solubility thermodynamic [1] | remaining at 0.5 h [2] | IC50 [3] | logP at 5000 µM [4] | inhibition (Homo sapiens) | SMILES
111 µg/mL (≈ 250 µM) | 41% | 12 nM | 2.6 | – | CC(=O)c1cn(CC(=O)COc2ccc(Oc3ccccc3)cc2)c2ccc(C(=O)O)cc12
34 µg/mL (≈ 69.7 µM) | 68% | 41 nM | 2.6 | – | CC(=O)c1cn(CC(=O)COc2ccc(OCCOc3ccccc3)cc2)c2ccc(C(=O)O)cc12
< 3 µg/mL | 2% | 90 nM | 3 | – | COc1ccc(-c2ccc(OCC(=O)Cn3ccc4cc(C(=O)O)ccc43)cc2)cc1
5 µg/mL (≈ 13 µM) | 7% | 64 nM | 3.2 | – | O=C(COc1ccc(-c2ccccc2)cc1)Cn1ccc2cc(C(=O)O)ccc21
< 3 µg/mL | 61% | > 1000 nM | 3.7 | 29% | O=C(COc1ccc(-c2ccccc2)cc1Cl)Cn1ccc2cc(C(=O)O)ccc21
31 µg/mL (≈ 69.6 µM) | 21% | 110 nM | 3.1 | – | O=C(COc1ccc(OCCOc2ccccc2)cc1)Cn1ccc2cc(C(=O)O)ccc21
< 3 µg/mL | 22% | 40 nM | 3.7 | – | Cc1ccc(-c2ccc(OCC(=O)Cn3ccc4cc(C(=O)O)ccc43)cc2)cc1
16 µg/mL (≈ 41.5 µM) | 13% | 210 nM | 3.1 | – | O=C(COc1cccc(-c2ccccc2)c1)Cn1ccc2cc(C(=O)O)ccc21
< 3 µg/mL | 31% | 19 nM | 3.8 | – | O=C(COc1ccc(-c2cccc(Cl)c2)cc1)Cn1ccc2cc(C(=O)O)ccc21
25 µg/mL (≈ 58.5 µM) | 0% | 47 nM | 4.1 | – | CC(C)(c1ccccc1)c1ccc(OCC(=O)Cn2ccc3cc(C(=O)O)ccc32)cc1
< 3 µg/mL | 33% | > 1000 nM | – | 16% | Cc1cc(-c2ccccc2)ccc1OCC(=O)Cn1ccc2cc(C(=O)O)ccc21
18 µg/mL (≈ 45.1 µM) | 7% | 54 nM | 3.3 | – | O=C(COc1ccc(Cc2ccccc2)cc1)Cn1ccc2cc(C(=O)O)ccc21

— ChEMBL document CHEMBL1155440, “1-(5-carboxyindol-1-yl)propan-2-one inhibitors of human cytosolic phospholipase A(2)alpha with reduced lipophilicity: synthesis, biological activity, metabolic stability, solubility, bioavailability, and topical in vivo activity” (J Med Chem, 2010)
